Values of other authors in US5691323A, “Muscarine antagonists” (Merck & Co., Inc., priority 1995, dated 1997).

How the values were obtained:
[1] = system: smooth muscle (ordinarily called M3 type); settings: background
pupil = settings: background
axial elongation = settings: background
[2] = background statement

Structure (SMILES)	Selectivity for smooth muscle (M3 type) receptors [1]	Pupil dilation (mydriasis) (pupil)	Effect on axial elongation / enlargement of the eye (axial elongation)	Sensitization assay result [2]
C[N+]1(C)CCC(OC(=O)C(c2ccccc2)c2ccccc2)CC1 [Example 4-DAMP, 4-diphenylacetoxy-N-methylpiperadine methiodide]	relatively selective antagonist for smooth muscle			
CN1CCN(CC(=O)N2c3ccccc3C(=O)Nc3cccnc32)CC1 [Pirenzepine]		far less effective at pupil dilation than atropine	inhibits axial elongation	positive
CN1CCc2cccc3c2[C@H]1Cc1ccc(O)c(O)c1-3 [apomorphine]			inhibit or actually prevent the axial enlargement of the eye	
CN1[C@@H]2CC[C@H]1C[C@@H](OC(=O)C(CO)c1ccccc1)C2 (stereo partly shown) [atropine]		causes mydriasis		positive
